In ChEMBL document CHEMBL1201862, “PubChem BioAssay data set” (2004):
Calls of active or inactive are those of the source.

Assays:
[1] = system: Vero; assay: cells; assay type: functional; details: Chlorocebus sabaeus
[2] = system: HEK293; assay: inhibitors of LMP1-driven NF-kB reporter, dose response, cell-based, HEK293, luciferase, cherry-pick (AID 588343); assay type: functional, Homo sapiens; details: Homo sapiens, HEK293
[3] = target: FAD-linked sulfhydryl oxidase ALR (Homo sapiens, UniProt P55789); assay: inhibitors of human ALR sulfhydryl oxidase, dose response, biochemical, H2O2 detection, luminescence, cherry-pick (AID 493248)
[4] = system: H9c2; assay: cells; assay type: functional, cell-based; details: Rattus norvegicus, H9c2, Myocardium;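 note: confirmatory concentration-response retest of ultra-high-throughput screening hits for modulation of myocardial damage; cell death induced by hydrogen peroxide oxidative stress; compound pretreatment for 60 min then peroxide exposure for 2 h; potency is for protecting the cells against peroxide damage rather than for killing them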
[5] = target: T1, Rac GTPase-activating protein 1 (Homo sapiens, UniProt Q9H0H5); assay: MgcRacGAP GTPase-activating activity inhibitors, confirmation, biochemical, ADP Hunter fluorescence, primary and confirmatory (AID 624330); assay type: functional
T1 sequence (Q9H0H5 whole entry): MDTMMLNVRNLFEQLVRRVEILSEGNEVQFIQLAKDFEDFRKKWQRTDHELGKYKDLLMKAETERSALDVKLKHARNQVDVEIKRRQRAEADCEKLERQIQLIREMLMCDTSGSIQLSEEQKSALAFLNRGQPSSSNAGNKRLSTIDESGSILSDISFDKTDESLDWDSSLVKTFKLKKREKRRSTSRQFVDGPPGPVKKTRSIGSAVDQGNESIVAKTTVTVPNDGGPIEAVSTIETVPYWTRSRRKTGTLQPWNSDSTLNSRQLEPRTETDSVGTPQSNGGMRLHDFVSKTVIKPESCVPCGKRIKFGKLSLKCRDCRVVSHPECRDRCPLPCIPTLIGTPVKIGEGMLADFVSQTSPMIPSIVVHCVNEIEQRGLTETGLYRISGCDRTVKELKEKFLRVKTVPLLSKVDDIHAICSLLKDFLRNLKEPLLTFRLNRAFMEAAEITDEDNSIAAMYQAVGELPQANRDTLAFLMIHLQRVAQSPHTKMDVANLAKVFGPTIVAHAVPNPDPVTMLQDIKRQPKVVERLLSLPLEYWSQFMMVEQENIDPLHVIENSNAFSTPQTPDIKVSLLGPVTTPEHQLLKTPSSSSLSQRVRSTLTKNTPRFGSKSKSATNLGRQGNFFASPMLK

[6] = system: Streptococcus; assay: Group A Streptococcus viability loss, dose response, counter-screen for streptokinase expression inhibitor project, luminescence, BacTiterGlo (AID 1915); assay type: functional, organism-based;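 note: potency for reduction of bacterial viability or growth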
[7] = target: T2, Streptokinase A (Streptococcus pyogenes serotype M1, UniProt P10520); assay: S. pyogenes streptokinase expression inhibitors, potency, dose response, plasminogen activation absorbance, OD405 (AID 1914); assay type: functional, Streptococcus pyogenes M1 GAS;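 note: secreted streptokinase activity via plasminogen activation per viability signal from cell pellet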
T2 sequence (P10520 whole entry): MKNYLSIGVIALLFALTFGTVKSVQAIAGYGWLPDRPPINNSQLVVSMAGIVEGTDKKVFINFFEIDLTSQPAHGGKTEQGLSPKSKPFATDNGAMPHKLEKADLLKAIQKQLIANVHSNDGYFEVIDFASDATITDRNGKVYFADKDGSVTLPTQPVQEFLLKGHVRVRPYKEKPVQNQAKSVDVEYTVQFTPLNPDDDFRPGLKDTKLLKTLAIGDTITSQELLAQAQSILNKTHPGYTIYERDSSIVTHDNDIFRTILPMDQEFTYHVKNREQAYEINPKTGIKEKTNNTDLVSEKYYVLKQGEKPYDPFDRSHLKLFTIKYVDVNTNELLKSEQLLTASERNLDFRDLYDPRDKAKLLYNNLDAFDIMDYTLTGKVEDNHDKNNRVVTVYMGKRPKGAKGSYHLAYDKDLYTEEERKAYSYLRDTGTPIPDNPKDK

[8] = system: Streptococcus sp. 'group A'; assay: growth inhibition of control SK(-) GAS strain, dose response, counter-screen for streptokinase expression inhibitor project, luminescence, kanamycin, BacTiterGlo, confirmation (AID 1900); assay type: functional, organism-based
[9] = system: BJ; assay: cells; assay type: functional, cell-based; details: Homo sapiens
[10] = target: Luciferin 4-monooxygenase (Photinus pyralis, UniProt P08659); assay: firefly luciferase enzyme inhibitors, dose response, biochemical, luminescence (AID 1891)
[11] = system: BJ; assay: cytotoxicity toward BJ-TERT-LT-ST fibroblasts, dose response, cell-based, RAS-independent, luminescence (AID 1935); assay type: functional; details: Homo sapiens;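 note: BJ fibroblasts immortalized with TERT plus LT and ST oncogenes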
[12] = system: BJ; assay: cytotoxicity toward BJ-TERT fibroblasts, dose response, cell-based, RAS-independent, luminescence (AID 1933); assay type: functional; details: Homo sapiens
[13] = cytotoxicity toward DRD oncogenic fibroblasts, dose response, cell-based, non-viral oncogenic, luminescence (AID 1934); assay type: functional; details: Homo sapiens
[14] = Luminescence Cell-Based Dose Confirmation HTS to Identify Inhibitors of Platelet Dense Granule Release. [Related pubchem assays: 1663 (Primary HTS), 1678 (Summary of Project)]; assay type: functional
[15] = NIH-3T3 fibroblast cytotoxicity, dose response, cytotoxicity control, cell-based, fluorescence, Alamar Blue, secondary assay (AID 2327); assay type: functional;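 note: NIH-3T3 mouse fibroblasts cultured with fluconazole at 8 µg/mL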
[16] = target: Cytochrome P450 2C19 (Homo sapiens, UniProt P33261); assay: Cytochrome panel assay with activity outcomes. Panel member name: p450-cyp2c19 Compounds with AC50 equal or less than 10 uM are considered active; assay type: functional; details: read-out: AC50
[17] = target: Cytochrome P450 2C9 (Homo sapiens, UniProt P11712)
[18] = target: Cytochrome P450 2D6 (Homo sapiens, UniProt P10635);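 note: CYP2D6 member of a cytochrome P450 panel assay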
Sequence of Cytochrome P450 2D6 (P10635 whole entry): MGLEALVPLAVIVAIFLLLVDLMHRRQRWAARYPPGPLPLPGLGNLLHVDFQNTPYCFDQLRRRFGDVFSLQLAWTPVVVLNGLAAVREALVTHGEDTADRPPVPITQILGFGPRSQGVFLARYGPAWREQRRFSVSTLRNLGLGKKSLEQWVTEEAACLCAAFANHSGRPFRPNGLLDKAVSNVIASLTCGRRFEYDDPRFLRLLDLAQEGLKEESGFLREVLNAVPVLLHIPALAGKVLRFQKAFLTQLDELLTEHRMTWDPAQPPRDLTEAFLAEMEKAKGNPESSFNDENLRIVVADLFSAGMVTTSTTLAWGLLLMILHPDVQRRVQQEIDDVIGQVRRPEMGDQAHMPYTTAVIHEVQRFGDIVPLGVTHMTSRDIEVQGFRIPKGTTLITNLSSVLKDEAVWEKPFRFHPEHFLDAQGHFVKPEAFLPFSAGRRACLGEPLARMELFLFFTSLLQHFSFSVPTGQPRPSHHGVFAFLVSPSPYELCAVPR

Sequence of FAD-linked sulfhydryl oxidase ALR (P55789 whole entry): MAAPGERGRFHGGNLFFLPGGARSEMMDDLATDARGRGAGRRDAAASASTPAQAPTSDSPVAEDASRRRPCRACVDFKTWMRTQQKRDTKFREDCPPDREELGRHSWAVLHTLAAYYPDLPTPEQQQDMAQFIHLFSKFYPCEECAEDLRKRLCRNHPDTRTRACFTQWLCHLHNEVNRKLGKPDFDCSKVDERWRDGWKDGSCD
Sequence of Cytochrome P450 2C9 (P11712 whole entry): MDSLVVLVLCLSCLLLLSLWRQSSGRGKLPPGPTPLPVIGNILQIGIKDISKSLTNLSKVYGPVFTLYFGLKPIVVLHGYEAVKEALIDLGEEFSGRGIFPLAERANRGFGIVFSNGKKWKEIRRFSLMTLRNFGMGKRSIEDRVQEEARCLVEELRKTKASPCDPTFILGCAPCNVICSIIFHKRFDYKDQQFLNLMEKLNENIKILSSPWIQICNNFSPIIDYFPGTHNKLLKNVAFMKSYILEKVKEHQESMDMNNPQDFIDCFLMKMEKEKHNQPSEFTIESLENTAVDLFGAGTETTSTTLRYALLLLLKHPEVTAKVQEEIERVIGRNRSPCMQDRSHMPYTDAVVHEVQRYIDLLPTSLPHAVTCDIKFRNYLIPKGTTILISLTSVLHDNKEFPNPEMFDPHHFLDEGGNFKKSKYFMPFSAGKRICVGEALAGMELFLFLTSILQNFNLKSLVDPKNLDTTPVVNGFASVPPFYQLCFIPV
Sequence of Cytochrome P450 2C19 (P33261 whole entry): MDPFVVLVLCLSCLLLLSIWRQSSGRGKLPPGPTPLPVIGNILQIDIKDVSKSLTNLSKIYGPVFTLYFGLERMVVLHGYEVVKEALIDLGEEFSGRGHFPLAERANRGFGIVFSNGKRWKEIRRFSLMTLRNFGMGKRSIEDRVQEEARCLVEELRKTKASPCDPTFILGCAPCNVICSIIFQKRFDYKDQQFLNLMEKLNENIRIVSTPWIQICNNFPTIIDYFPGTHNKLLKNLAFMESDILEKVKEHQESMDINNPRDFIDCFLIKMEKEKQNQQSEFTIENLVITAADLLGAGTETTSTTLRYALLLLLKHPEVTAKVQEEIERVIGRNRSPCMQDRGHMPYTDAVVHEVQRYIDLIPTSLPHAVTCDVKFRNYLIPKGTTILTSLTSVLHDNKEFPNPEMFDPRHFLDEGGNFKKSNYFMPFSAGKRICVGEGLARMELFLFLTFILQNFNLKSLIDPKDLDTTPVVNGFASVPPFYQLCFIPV
Sequence of Luciferin 4-monooxygenase (P08659 whole entry): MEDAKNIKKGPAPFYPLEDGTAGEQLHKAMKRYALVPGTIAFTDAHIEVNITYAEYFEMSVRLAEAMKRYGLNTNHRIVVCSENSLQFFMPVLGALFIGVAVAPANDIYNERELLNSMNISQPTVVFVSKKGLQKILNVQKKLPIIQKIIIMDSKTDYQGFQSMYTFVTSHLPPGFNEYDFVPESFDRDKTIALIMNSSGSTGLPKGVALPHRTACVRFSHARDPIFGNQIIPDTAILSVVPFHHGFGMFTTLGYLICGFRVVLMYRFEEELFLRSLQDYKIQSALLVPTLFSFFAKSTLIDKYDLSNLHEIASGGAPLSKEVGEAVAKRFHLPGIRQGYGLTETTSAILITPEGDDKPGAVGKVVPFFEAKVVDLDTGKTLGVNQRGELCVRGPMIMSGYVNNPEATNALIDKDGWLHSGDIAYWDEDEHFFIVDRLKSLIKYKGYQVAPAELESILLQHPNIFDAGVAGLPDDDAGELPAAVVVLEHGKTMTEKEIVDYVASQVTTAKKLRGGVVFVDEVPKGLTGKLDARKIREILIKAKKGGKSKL

**Q.** Which CC50 [1] does the source give for CCOC(=O)c1oc2ccc(S(=O)(=O)n3nc(-c4ccc(Cl)cc4)cc3N)cc2c1C here?
**A.** Its CC50 is > 25 µM (active).

**Q.** Which AC50 [2] does the source give for Cc1cccc(NC(=O)c2cnc3ccccn3c2=O)c1 here?
**A.** Its AC50 is 2.26 µM (active).

**Q.** For Cc1cc(Oc2ncccc2[N+](=O)[O-])c2cc(Cl)ccc2n1, which AC50 [3] is on record?
**A.** Its AC50 is 0.409 µM (active).

**Q.** Which results are given for COc1ccc(NCc2cc3ccccc3nc2O)cc1?
**A.** IC50 [4]: > 79 µM (inactive); IC50 [5]: 94.7 µM (active)

**Q.** What does the source list for O=C(NN/C=C1\C(=O)N(c2ccccc2Cl)C(=O)c2ccccc21)C1COc2ccccc2O1 (stereo not given)?
**A.** IC50 [4]: 17.2 µM (active); EC50 [6]: 7.4 µM (active); EC50 [7]: > 150 µM (not active); EC50 [8]: 6.64 µM (active)

**Q.** For OC1CCN(c2c3c(nc4cc(-c5cccc(F)c5)nn24)CCCC3)CC1, which IC50 [4] is on record?
**A.** The IC50 was > 79 µM (inactive).

**Q.** What does the source list for Nc1cc2sc(-c3ccc(C(=O)O)cc3)nc2cc1Cl?
**A.** EC50 [9]: 17 µM (active); EC50 [10]: 0.441 µM (active); EC50 [11]: > 150 µM (inconclusive); EC50 [12]: 20.4 µM (active); EC50 [13]: 15.4 µM (active); EC50 [14]: 1.32 µM (active)

**Q.** For COc1cccc(Oc2cnc(N)nc2-c2ccc(OC)cc2O)c1, which EC50 [9] is on record?
**A.** Its EC50 is 27.6 µM (active).

**Q.** What about the EC50 [11] of the same compound?
**A.** Its EC50 is 67.1 µM (active).

**Q.** And the EC50 [12]?
**A.** The EC50 was 17.9 µM (inconclusive).

**Q.** And the EC50 [13]?
**A.** Its EC50 is 10.9 µM (active).

**Q.** With O=C(CN1C(=O)CCC1=O)NNc1ccc2ccccc2c1 as the compound, how does the EC50 [15] read?
**A.** Its EC50 is 3.62 µM (active).

**Q.** And the AC50 [3]?
**A.** Its AC50 is 0.09 µM (active).

**Q.** Which EC50 [9] does the source give for COc1cc(OC)cc(C(=O)Nc2ccc(N3CCN(C(=O)c4cccs4)CC3)cc2)c1 here?
**A.** Its EC50 is 61.2 µM (active).

**Q.** And the EC50 [11]?
**A.** Its EC50 is > 150 µM (inconclusive).

**Q.** What about the EC50 [12] of the same compound?
**A.** Its EC50 is 14.9 µM (active).

**Q.** And the EC50 [13]?
**A.** Its EC50 is 19.5 µM (active).

**Q.** For CCCCCCCCCCCCCCCC(=O)NC[C@@H](COP(=O)([O-])OCC[N+](C)(C)C)OCC, which AC50 [16] is on record?
**A.** Its AC50 is 39.8 µM (inconclusive).

**Q.** What about the AC50 [17] of the same compound?
**A.** Its AC50 is “inconclusive”.

**Q.** And the AC50 [18]?
**A.** Its AC50 is 31.6 µM (inconclusive).

**Q.** With CC(OC(=O)c1cc(-c2cccnc2)nc2ccccc12)C(=O)Nc1ccc2ccccc2c1 (stereo not given) as the compound, how does the IC50 [4] read?
**A.** The IC50 was > 79 µM (inactive).

**Q.** Which AC50 [16] does the source give for COc1cc(/C=C(\C#N)c2nc3c(s2)CC(C)CC3)ccc1O (stereo not given) here?
**A.** Its AC50 is 39.8 µM (inconclusive).

**Q.** And the AC50 [17]?
**A.** Its AC50 is “inconclusive”.

**Q.** And the AC50 [18]?
**A.** The AC50 was 28.2 µM (inconclusive).

**Q.** For COc1cccc(NC(=O)c2oc3ccc(S(=O)(=O)N4CCOCC4)cc3c2C)c1, which IC50 [4] is on record?
**A.** Its IC50 is > 79 µM (inactive).

**Q.** With CCn1c2ccccc2c2nc3cc(OC)c(OC)cc3nc21 as the compound, how does the IC50 [4] read?
**A.** Its IC50 is > 79 µM (inactive).
